Here are results for three molecules from US20250255815A1, “NUCLEIC ACIDS ENCODING A CONSTITUTIVELY-ACTIVE CYCLIC GMP-AMP SYNTHASE AND IMMUNOGENIC DELIVERY VEHICLES FOR SAME” (Corner Therapeutics, Inc., priority 2022, published 2025).

Experiment [1] concerns human PBMCs. Nature of the experiment: IFNγ and TNFα secretion by human PBMCs (ELISA). The format is cell-based. Particulars: two days post-hyperactivation. As to the method: Cell Culture and Stimulation. Immediately following isolation, PBMCs were plated in RPMI medium containing 10% FBS, 50 units/mL penicillin, […] streptomycin, 2 mM L-glutamine, 1 mM sodium pyruvate, and […] beta-mercaptoethanol (R10 media). Cells were plated at 1×10^5 (canine cells) or 1×10^6 (human cells) per well in 96-well flat bottom tissue culture plates. Lyophilized Vaccigrade R848 (Invivogen) was reconstituted and diluted according to manufacturer's recommendations and added to cells at a final concentration of 1 μg/mL. Immediately following, 22:0 LYSO PC was added to cells at a final concentration of 82.5 μM. […]
(§1) Endpoint Analyses. […] Half of the media volume in the wells was collected for cytokine quantification by Enzyme-Linked Immunosorbent Assay (ELISA) or Lumit™ Bioluminescent assay, while the remaining media and cells were used to quantify cell viability by assessing metabolic activity.
(§2) Quantification of Cytokine Secretion. IL-1β secretion from human PBMCs was assessed using one of the following kits: ELISA MAX Deluxe Set Human IL-1β kit (Biolegend), Invitrogen Human IL-1β kit, or the Lumit™ Human IL-1β Immunoassay (Promega). IFNγ secretion from human PBMCs was assessed using the ELISA MAX Deluxe Set Human IFNγ (Biolegend) and TNFα secretion from human PBMCs was assessed using the Human TNFα Uncoated ELISA kit (Invitrogen). […]
(In general: In an ELISA, binding on a coated surface is turned into a signal by an enzyme label.)

The next experiment has as its system canine PBMCs. Nature of the experiment: IL-1β secretion by canine PBMCs (ELISA). Particulars: two days in culture, R848 1 μg/mL, 22:0 LYSO PC 82.5 μM. It counts as cell-based. The method, then:
(§3) Isolation of PBMCs from Whole Blood. PBMCs were isolated from whole blood using density gradient centrifugation with Ficoll-Paque PLUS (Cytivia). Whole blood was diluted 1:1 with PBS, layered on top of Ficoll-Paque PLUS and centrifuged at 1000×g for 30 minutes at room temperature. PBMCs were collected, washed twice in PBS, and incubated with Ack lysis buffer (Lonza) to remove any remaining red blood cells.
(§4) Cell Culture and Stimulation. Immediately following isolation, PBMCs were plated in RPMI medium containing 10% FBS, 50 units/mL penicillin, […] streptomycin, 2 mM L-glutamine, 1 mM sodium pyruvate, and […] beta-mercaptoethanol (R10 media). […]
as §1, §2

Experiment [2] concerns human PBMCs. Nature of the experiment: IL-1β secretion by human PBMCs (ELISA or Lumit). As to conditions: two days in culture. It counts as cell-based. The method, then:
as §3, §4, §1, §2

For experiment [3], the system named is human leukemia monocytic cell line. Particulars: cited from earlier work.

For the molecule `Nc1nc2c(ncn2[C@@H]2O[C@@H]3COP(=O)(O)O[C@H]4[C@@H](O)[C@H](n5cnc6c(N)ncnc65)O[C@@H]4COP(=O)(O)O[C@@H]2[C@@H]3O)c(=O)[nH]1` [2′3′cGAMP, 2′3′cyclic GMP-AMP, reference compound], the “IFNγ secretion, fold change per donor relative to R848 alone” value with human PBMCs [1] is “neither GM-CSF nor 2′3′cGAMP elicited a substantial fold change in IFNγ secretion over R848 alone”. Besides, in the experiment on canine PBMCs, the IL-1β secretion entry is “neither GM-CSF nor 2′3′cGAMP induced significant IL-1β secretion”.

On to “GM-CSF: human GM-CSF (Peprotech), innate agonist”, for which the “IFNγ secretion, fold change per donor relative to R848 alone” value with human PBMCs [1] is on record as “neither GM-CSF nor 2′3′cGAMP elicited a substantial fold change in IFNγ secretion over R848 alone”. The IL-1β secretion result is “did not induce levels of IL-1β secretion from human PBMCs significantly above background levels” with human PBMCs [2] and “neither GM-CSF nor 2′3′cGAMP induced significant IL-1β secretion” in the experiment with canine PBMCs.

B1: cGASΔN: constitutively-active truncated human cGAS, C-terminal domain (SEQ ID NO:1) (protein, listed as Homo sapiens)
chain: PGASKLRAVLEKLKLSRDDISTAAGMVKGVVDHLLLRLKCDSAFRGVGLLNTGSYYEHVKISAPNEFDVMFKLEVPRIQLEEYSNTRAYYFVKFKRNPKENPLSQFLEGEILSASKMLSKFRKIIKEEINDIKDTDVIMKRKRGGSPAVTLLISEKISVDITLALESKSSWPASTQEGLRIQNWLSAKVRKQLRLKPFYLVPKHAKEGNGFQEETWRLSFSHIEKEILNNHGKSKTCCENKEEKCCRKDCLKLMKYLLEQLKERFKDKKHLDKFSSYHVKTAFFHVCTQNPQDSQWDRKDLGLCFDNCVTYFLQCLRTEKLENYFIPEFNLFSSNLIDKRSKEFLTKQIEYERNNEFPVFDEF
Turning to B1, the “expression of interferon and interferon-stimulated genes” value in experiment [3] was “higher levels of expression of interferon and interferon-stimulated genes”.
